Data reported in US20190030018A1 (Celgene Corporation, priority 2017, published 2019).
pIC50: −log10 of the molar value. Like-named read-outs stand apart in the source and are kept apart here.

Key:
OCI-AML-2 = experiment: In vitro combination studies, CellTitre-Glo cell viability; settings: OCI-AML-2; in combination with Compound 1
F-36-P = experiment: as above; settings: F-36-P; in combination with Compound 1
HL-60 = experiment: as above; settings: HL-60; in combination with Compound 1
MV-4-11 = experiment: as above; settings: MV-4-11; in combination with Compound 1
NOMO-1 = experiment: as above; settings: NOMO-1; in combination with Compound 1
HNT-34 = experiment: as above; settings: HNT-34; in combination with Compound 1
KG-1 = experiment: as above; settings: KG-1; in combination with Compound 1
AML cell lines = experiment: In vitro combination studies, CellTitre-Glo cell viability (Bliss, Loewe, HSA, CES synergy analysis); settings: FLT3 and JAK inhibitors in combination with Compound 1 in MOLM-13 and NOMO-1 cell lines
Experimental: where EA and EB represent the effect of each single agent and EAB represents the effect of the combination at a given dose.
All data was analyzed using the CES equation:
In cases where single agent dose response fit a Hill slope, the CES analysis was compared to Loewe, Bliss, and HSA models.

MOLM-13 = experiment: In vitro combination studies, CellTitre-Glo cell viability; settings: MOLM-13; in combination with Compound 1
ML-2 = experiment: as above; settings: ML-2; in combination with Compound 1
OCT-AML-3 = experiment: as above; settings: OCI-AML-3; in combination with Compound 1
[1] = Dynamic vapor sorption (DVS) of solid forms; type: physicochemical; settings: relative humidity increased from about 0% to about 90% RH
Experimental: In certain embodiments, Form A is characterized by dynamic vapor sorption analysis. […] In certain embodiments, Form A comprises less than 0.1% water as determined in a coulometric Karl Fischer (KF) titrator equipped with an oven sample processor set at 225° C.
In certain embodiments, Form B is characterized by dynamic vapor sorption analysis. […] In certain embodiments, Form B comprises less than 0.1% water as determined in a coulometric Karl Fischer (KF) titrator equipped with an oven sample processor set at 225° C.
In certain embodiments, Form C is characterized by dynamic vapor sorption analysis. […] In certain embodiments, Form C comprises less than 0.1% water as determined in a coulometric Karl Fischer (KF) titrator equipped with an oven sample processor set at 225° C.

[2] = tested on: stomach cancer cell line GA0087; experiment: GA0087 PDX model ex vivo 3D methylcellulose CellTiter-Glo cell viability assay (IC50, matrix combination, Combination Index)
Experimental: (§1) Materials and Methods: The stomach cancer cell line GA0087 was used in this study. […] Culture media was purchased from GIBCO or Sigma, USA.
(§2) Everolimus was obtained from Selleck. Cisplatin was used as a reference drug, and was obtained from Hospira Australia pty Ltd.
(§3) PDX tumor models were maintained at Crownbio HuPrime animal facility. Tumor growth was monitored weekly. Tumor volumes were measured in two dimensions using a caliper, and the volume was expressed in mm^3 using the formula: V=0.5 a×b^2 where a and b are the long and short diameters of the tumor, respectively. • 2. Mouse xenografts at tumor volume around 800 mm^3 were housed with sterile surgical tools and tumor tissue was minced into tiny pieces with scissors in small amount of PBS on a new tissue culture plate. • 3. The cell suspension was filtered through Falcon cell strainer. The nylon mesh was washed 3-5 times with PBS. • 4. The cell suspension was centrifuged at 1000 rpm for 5 minutes and the pellet was washed with PBS and centrifuged again. • 5. Red blood cells were removed using red blood cell lysis buffer. • 6. The cell suspension was centrifuged at 1000 rpm for 5 minutes and the pellet was washed with PBS and centrifuged again. • 7. The cell pallet was re-suspended with appropriate cell culture media for different cells. • 8. Cells were counted with Countstar by trypan blue exclusion.
(§4) Day −1: Cell Plating • 1. The cells were harvested during the logarithmic growth period. The harvested cells were cultured with appropriate cell media and centrifuged at 1000 rpm for 3 minutes. […] (Cell concentration was adjusted according to the data base or density optimization assay). • 3. 3.5 mL of cell suspension was mixed with 6.5 mL of 1% methylcellulose. […] 90 μL cell suspensions were added to 96-well plates according to plate map with final cell density. Two duplicate plates were set up: one for day 0 reading (T0) and the other was cultured in incubator for reading at the end point.
(§5) Day 0: T0 Plate Reading and Compound Treatment • 5.10 μL culture medium was added to T0 plate in each well for T0 reading. • 6.100 μl CellTiter-Glo® Reagent was added to each well. • 7. The contents were mixed for 2 minutes on an orbital shaker to facilitate cell lysis. • 8. The plates were allowed to incubate at room temperature for 10 minutes to stabilize luminescent signal. • 9. A backseal black sticker was placed to the bottom of each plate. • 10. The luminescence was read using EnVision Multi Label Reader. • 11.
(§6) The solutions were stored at −20° C. […] The response score was calculated by normalizing to DMSO control. The combination index (CI) was calculated using Chou and Talalay method, wherein a CI of less than 1 indicates synergy. Cisplatin was used as control in the single compound dose response, but was not included in the combination test.
(§7) After drug incubation, pictures for representative wells were taken using a phase contrast microscope. • 13. 100 μL CellTiter-Glo® Reagent was added to each well. • 14. Contents were mixed for 2 minutes on an orbital shaker to facilitate cell lysis. • 15. The plates were allowed to incubate at room temperature for 10 minutes to stabilize luminescent signal. • 16. Backseal black sticker was placed to the bottom of each plate. • 17. Luminescence was recorded using EnVision Multi Label Reader.
(§8) In order to calculate IC50, a dose-response curve was fitted using nonlinear regression model with a sigmoidal dose response. The formula of surviving rate is shown below, and the IC50 was automatically produced by GraphPad Prism 5.0.
(§9) The surviving rate (%)=(LumTest article−LumMedium control)/(LumNone treated−LumMedium control)×100%.

[3] = as above
Experimental: as §1, §2, §3, §4, §5, §6, §7, §8, §9

[4] = tested on: primary human tumor xenograft model GA0087; experiment: HuPrime gastric cancer xenograft GA0087 model, in vivo efficacy; set-up: species or system female BALB/c nude mice; settings: single agent, 1.25 mg/kg and 5 mg/kg
Description: Tumor fragments from stock mice were harvested and used for inoculation into mice. Each mouse was inoculated subcutaneously at the right flank with primary human tumor xenograft model GA0087 tumor fragment (P7, 2-3 mm in diameter) for tumor development. […] After tumor inoculation, the animals were checked daily for morbidity and mortality. At the time of routine monitoring, the animals were checked for any effects of tumor growth and treatments on normal behavior such as mobility, food and water consumption, body weight gain/loss, eye/hair matting and any other abnormal effect. Death of euthanized mouse was recorded. All groups were terminated on Day 40. Three tumors in each group, with tumor volume near median of each group were collected. Plasma of the same mice were collected. For comparison among three or more groups, one-way ANOVA was performed followed by multiple comparison procedures. All data were analyzed using SPSS 18.0. P values <0.05 is considered to be statistically significant.

[5] = tested on: human QGP1 pancreatic somatostatinoma xenografts
Experimental: Treatment began on Day 1 in nine groups of mice (n=10) with established subcutaneous QGP1 tumors. […] Tumors were measured using calipers twice each week to the end of the study on Day 52. Three tumors at or near the group median tumor volume 2000 mm^3 endpoint were sampled from each group.
Treatment efficacy was based on tumor growth inhibition (TGI), defined as the difference between the final (Day 52) median tumor volumes (MTVs) of treated and control mice. The results were analyzed utilizing the Mann-Whitney U-test, and were deemed statistically significant at P≤0.05. Drug tolerability was assessed by body weight measurements and by frequent observation of treated animals.

[6] = tested on: GSPT1 expression, mTOR activation, Mcl-1 expression and Caspase-3 cleavage in AML cells; experiment: Immunoblot analysis of AML cells treated with Compound 1 and everolimus; type: cell-based
Description: Whole cell extracts were collected and subjected to immunoblot analysis.

[7] = tested on: GSPT1 and mTORC1 effectors in BON cells; experiment: Western blot of BON cell lysates after 120 h treatment; type: cell-based
Experimental: BON cells were cultured in DMEM: F12K media containing 10% fetal bovine serum and penicillin/streptomycin antibiotics. […] Cells were harvested and probed with antibodies for western blots and imaged using a Li-Cor Odyssey imaging system. All total and phosphorylated antibodies were obtained from Cell Signaling Technology.

[8] = tested on: IL3 independent JAK2 V617F BaF3 cells; experiment: Combination studies with JAK2 inhibitors in engineered BaF3 cells, CellTitre-Glo after 3 days; type: cell-based; settings: compared to the IL3 dependent lines
Experimental: Everolimus was included as a control. The cell viability was then measured by CellTitre-Glo® after 3 days.

[9] = read-out: Absolute IC50, GA0087-1st experiment
[10] = read-out: Absolute IC50, GA0087-2nd experiment

Molecule	Synergy analysis for combinations with Compound 1 (OCI-AML-2)	Synergy analysis for combinations with Compound 1 (F-36-P)	Synergy analysis for combinations with Compound 1 (HL-60)	Synergy analysis for combinations with Compound 1 (MV-4-11)	Synergy analysis for combinations with Compound 1 (NOMO-1)	Synergy analysis for combinations with Compound 1 (HNT-34)	Synergy analysis for combinations with Compound 1 (KG-1)	Synergy (AML cell lines)	Synergy analysis for combinations with Compound 1 (MOLM-13)	Synergy analysis for combinations with Compound 1 (ML-2)	Synergy analysis for combinations with Compound 1 (OCT-AML-3)	also measured
CC1(COc2ccc3c(c2)ncn3-c2ccc3cccc(N4CCC(N)CC4)c3n2)COC1 [Crenolanib]	No	No	No	Yes	No	No	No	Yes	Yes	No	No	
CC[C@@](C)(Nc1ccnc(-c2c[nH]c3ncccc23)n1)C(=O)NCC(F)(F)F [Decernotinib]								Yes				
O=C(Nc1nc2cccc(-c3ccc(CN4CCS(=O)(=O)CC4)cc3)n2n1)C1CC1 [Filgotinib]								Yes				
O=C1CCC(N2Cc3cc(CNC(=O)C(F)(F)c4ccc(Cl)cc4)ccc3C2=O)C(=O)N1 (stereo not drawn) [Form A, 2-(4-chlorophenyl)-N-((2-(2,6-dioxopiperidin-3-yl)-1-oxoisoindolin-5-yl)methyl)-2,2-difluoroacetamide]												water uptake (DVS) [1]: about 1.2 % w/w
O=C1CCC(N2Cc3cc(CNC(=O)C(F)(F)c4ccc(Cl)cc4)ccc3C2=O)C(=O)N1 (stereo not drawn) [Form B, 2-(4-chlorophenyl)-N-((2-(2,6-dioxopiperidin-3-yl)-1-oxoisoindolin-5-yl)methyl)-2,2-difluoroacetamide]												water uptake (DVS) [1]: about 1.4 % w/w
FC(F)(F)c1ccc(CNc2ccc(Cc3c[nH]c4ncc(Cl)cc34)cn2)cn1 [Pexidartinib]	No	No	No	Yes	No	No	No	Yes	Yes	No	No	
C[C@H](NC(=O)Cc1cc(F)cc(F)c1)C(=O)N[C@@H]1C(=O)N(C)c2ccccc2-c2ccccc21 [YO-01027]	No	No	No	No	No	No	No		No	No	No	
N.N.[Cl][Pt][Cl] [cisplatin]												Maximal Inhibition ([2]; GA0087-1st experiment): 98.73%; Maximal Inhibition ([2]; GA0087-2nd experiment): 98.48%; pIC50 [3, 9]: 5.47; pIC50 [3, 10]: 5.45; pIC50 ([3]; read-out: Relative IC50, GA0087-1st experiment): 5.50; pIC50 ([3]; read-out: Relative IC50, GA0087-2nd experiment): 5.48
CO[C@H]1C[C@@H]2CC[C@@H](C)[C@@](O)(O2)C(=O)C(=O)N2CCCC[C@H]2C(=O)O[C@H]([C@H](C)C[C@@H]2CC[C@@H](OCCO)[C@H](OC)C2)CC(=O)[C@H](C)/C=C(\C)[C@@H](O)[C@@H](OC)C(=O)[C@H](C)C[C@H](C)/C=C/C=C/C=C/1C [everolimus, reference compound]	Yes	Yes	No	Yes	No	No	No		Yes	Yes	Yes	anti-tumor activity [4]: moderate anti-tumor activity; tumor growth inhibition ([5]; 3 mg/kg i.p. qd x 21, Day 52): 41%; tumor growth inhibition ([5]; 10 mg/kg i.p. qd x 21, Day 52): 39%; GSPT1 expression/degradation, Mcl-1 loss, Caspase-3 cleavage [6]: minimal effect; activation of the mTOR pathway (phosphorylation of S6K1 and 4E-BP1) [6]: significantly blocked the activation of the mTOR pathway; Maximal Inhibition ([2]; GA0087-1st experiment): 73.15%; Maximal Inhibition ([2]; GA0087-2nd experiment): 72.80%; pIC50 [3, 9]: 8.21; pIC50 [3, 10]: 8.12; effect on mTORC1 effectors (p4EBP1, phosphorylation of S6) [7]: dramatically decreased phosphorylation of S6 and phosphorylation of 4EBP1; single agent sensitivity [8]: more sensitive
N#CCNC(=O)c1ccc(-c2ccnc(Nc3ccc(N4CCOCC4)cc3)n2)cc1 [momelotinib, reference compound]								Yes				single agent sensitivity [8]: more sensitive
C1=C/COCc2cc(ccc2OCCN2CCCC2)Nc2nccc(n2)-c2cccc(c2)COC/1 [pacritinib, reference compound]								Yes				
CC(C)(C)c1cc(NC(=O)Nc2ccc(-c3cn4c(n3)sc3cc(OCCN5CCOCC5)ccc34)cc2)no1 [quizartinib, reference compound]								Yes				
chloro-N,N-diethyl-5-((4-(2-(4-(3-methylureido)phenyl)pyridin-4-yl)pyrimidin-2-yl)amino)benzenesulfonamide [compound Ii, reference compound]	Yes	Yes	No	Yes	Yes	No	No		Yes	No	Yes	
pladienolide B [reference compound]	Yes	Yes	No	Yes	Yes	No	No		Yes	No	No	
